# According to patent publication US12612407B2, “Imidazo[2,1-f][1,2,4]triazin-4-amine derivatives as TLR7 agonist” (BEIGENE, LTD., priority 2020, dated 2026):
# Biological target: T1, human TLR7 (Homo sapiens, UniProt Q9NYK1)
# T1 construct: host or cells: HEK293 (HEK-Blue hTLR7)
# T1 sequence (Q9NYK1 27-1049): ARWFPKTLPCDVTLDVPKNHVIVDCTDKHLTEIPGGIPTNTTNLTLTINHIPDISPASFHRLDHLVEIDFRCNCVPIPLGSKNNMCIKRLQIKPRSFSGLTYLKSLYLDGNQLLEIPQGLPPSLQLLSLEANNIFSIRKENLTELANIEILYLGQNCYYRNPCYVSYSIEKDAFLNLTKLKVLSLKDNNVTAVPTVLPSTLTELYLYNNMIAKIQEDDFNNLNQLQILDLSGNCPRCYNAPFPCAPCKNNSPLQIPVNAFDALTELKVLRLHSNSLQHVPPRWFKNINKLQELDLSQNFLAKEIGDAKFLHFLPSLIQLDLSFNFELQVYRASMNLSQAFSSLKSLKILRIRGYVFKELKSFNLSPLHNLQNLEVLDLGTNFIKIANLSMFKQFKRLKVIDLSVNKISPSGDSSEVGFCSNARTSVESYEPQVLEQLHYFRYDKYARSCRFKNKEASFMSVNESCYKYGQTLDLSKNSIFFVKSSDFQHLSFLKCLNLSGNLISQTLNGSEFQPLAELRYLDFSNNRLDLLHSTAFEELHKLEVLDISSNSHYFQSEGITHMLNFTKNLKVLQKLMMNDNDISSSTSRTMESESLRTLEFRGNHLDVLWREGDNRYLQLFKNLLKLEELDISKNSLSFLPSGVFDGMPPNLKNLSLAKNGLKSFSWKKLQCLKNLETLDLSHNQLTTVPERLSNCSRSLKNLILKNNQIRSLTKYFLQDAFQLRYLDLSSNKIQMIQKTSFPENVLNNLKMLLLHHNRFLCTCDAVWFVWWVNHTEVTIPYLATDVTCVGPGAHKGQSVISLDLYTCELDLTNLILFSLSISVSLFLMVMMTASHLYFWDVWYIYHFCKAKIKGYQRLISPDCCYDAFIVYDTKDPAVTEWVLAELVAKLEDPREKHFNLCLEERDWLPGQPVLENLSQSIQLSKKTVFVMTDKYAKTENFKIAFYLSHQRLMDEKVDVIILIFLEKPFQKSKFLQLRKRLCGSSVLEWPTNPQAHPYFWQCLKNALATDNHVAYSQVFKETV
# Experiment: HEK293-Blue hTLR7 Reporter Assay (QUANTI-BLUE, SEAP readout)
# Assay type: cell-based
# Settings: HEK-Blue-hTLR7 cells, 24 hrs treatment, Table 1, B1-B232
# How it was run: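 HEK-Blue-hTLR7 cells expressing NF-κB/AP-1-driven SEAP, 4×10^4 cells/well, treated 24 h at 37° C with increasing compound concentrations. Supernatant SEAP measured with Quanti-blue substrate (10-30 min, 37° C) at 620-655 nm; EC50 from sigmoidal dose-response fit.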
row,Structure (SMILES),EC50 [µM]
1,"CCCCOc1nc(N)c2ncc(Cc3cnc(N4CCN(CCNC)CC4)c(C)c3)n2n1 [Compound B75, 2-butoxy-7-((5-methyl-6-(4-(2-(methylamino)ethyl)piperazin-1-yl)pyridin-3-yl)methyl)imidazo[2,1-f][1,2,4]triazin-4-amine]",0.121
2,"CCCCOc1nc(N)c2ncc(Cc3cnc(N4CCN(CCN(C)C)CC4)c(C)c3)n2n1 [Compound B76, 2-butoxy-7-((6-(4-(2-(dimethylamino)ethyl)piperazin-1-yl)-5-methylpyridin-3-yl)methyl)imidazo[2,1-f][1,2,4]triazin-4-amine]",0.094
3,"CCCCOc1nc(N)c2ncc(Cc3cnc(N4CCC(N(C)C)CC4)c(C)c3)n2n1 [Compound B78, 2-butoxy-7-((6-(4-(dimethylamino)piperidin-1-yl)-5-methylpyridin-3-yl)methyl)imidazo[2,1-f][1,2,4]triazin-4-amine]",0.047
4,"CCCCOc1nc(N)c2ncc(Cc3cnc(N4C[C@H]5C[C@@H]4CN5)c(C)c3)n2n1 [Compound B79, 7-((6-((1R,4R)-2,5-diazabicyclo[2.2.1]heptan-2-yl)-5-methylpyridin-3-yl)methyl)-2-butoxyimidazo[2,1-f][1,2,4]triazin-4-amine]",0.505
5,"C=CCCOc1nc(N)c2ncc(Cc3cnc(N4CCNCC4)c(C)c3)n2n1 [Compound B80, 2-(but-3-en-1-yloxy)-7-((5-methyl-6-(piperazin-1-yl)pyridin-3-yl)methyl)imidazo[2,1-f][1,2,4]triazin-4-amine]",0.242
6,"CCCCOc1nc(N)c2ncc(Cc3cnc(N4CCN(C(=O)[C@@H](N)Cc5ccccc5)CC4)c(C)c3)n2n1 [Compound B81, (S)-2-amino-1-(4-(5-((4-amino-2-butoxyimidazo[2,1-f][1,2,4]triazin-7-yl)methyl)-3-methylpyridin-2-yl)piperazin-1-yl)-3-phenylpropan-1-one]",4.44
7,"CCCCOc1nc(N)c2ncc(Cc3cnc(N4CCC5(CCNC5)CC4)c(C)c3)n2n1 [Compound B82, 2-butoxy-7-((5-methyl-6-(2,8-diazaspiro[4.5]decan-8-yl)pyridin-3-yl)methyl)imidazo[2,1-f][1,2,4]triazin-4-amine]",0.431
8,"CCCCOc1nc(N)c2ncc(Cc3cnc(N4CCC5(CCCC5)CC4)c(C)c3)n2n1 [Compound B83, 2-butoxy-7-((5-methyl-6-(8-azaspiro[4.5]decan-8-yl)pyridin-3-yl)methyl)imidazo[2,1-f][1,2,4]triazin-4-amine]",> 10
9,"Cc1cc(Cc2cnc3c(N)nc(NCCC(C)C)nn23)cnc1N1CCNCC1 [Compound B85, N^2-isopentyl-7-((5-methyl-6-(piperazin-1-yl)pyridin-3-yl)methyl)imidazo[2,1-f][1,2,4]triazine-2,4-diamine]",1.36
10,"CCCCOc1nc(N)c2ncc(Cc3cnc(N4CCC(N(C)C)C4)c(C)c3)n2n1 (stereo not shown) [Compound B87, 2-butoxy-7-((6-(3-(dimethylamino)pyrrolidin-1-yl)-5-methylpyridin-3-yl)methyl)imidazo[2,1-f][1,2,4]triazin-4-amine]",0.435
11,"CCCCNc1nc(N)c2ncc(Cc3cnc(N4CCC(N)CC4)c(C)c3)n2n1 [Compound B88, 7-((6-(4-aminopiperidin-1-yl)-5-methylpyridin-3-yl)methyl)-N2-butylimidazo[2,1-f][1,2,4]triazine-2,4-diamine]",0.061
12,"CCCCOc1nc(N)c2ncc(Cc3cnc(N4CCN(S(=O)(=O)CCC)CC4)c(C)c3)n2n1 [Compound B89, 2-butoxy-7-((5-methyl-6-(4-(propylsulfonyl)piperazin-1-yl)pyridin-3-yl)methyl)imidazo[2,1-f][1,2,4]triazin-4-amine]",> 10
13,"CCCCOc1nc(N)c2ncc(Cc3ccc(N4CCNCC4)c(C(C)C)c3)n2n1 [Compound B90, 2-butoxy-7-(3-isopropyl-4-(piperazin-1-yl)benzyl)imidazo[2,1-f][1,2,4]triazin-4-amine]",2.36
14,"CCCCOc1nc(N)c2ncc(Cc3cnc(N4CCN(CCN)CC4)c(C)c3)n2n1 [Compound B91, 7-((6-(4-(2-aminoethyl)piperazin-1-yl)-5-methylpyridin-3-yl)methyl)-2-butoxyimidazo[2,1-f][1,2,4]triazin-4-amine]",0.15
15,"CCCCOc1nc(N)c2ncc(Cc3ccc(N4CCNCC4)c(CC)c3)n2n1 [Compound B92, 2-butoxy-7-(3-ethyl-4-(piperazin-1-yl)benzyl)imidazo[2,1-f][1,2,4]triazin-4-amine]",0.464
16,"CCCOc1nc(N)c2ncc(Cc3cnc(N4CCNCC4)c(C)c3)n2n1 [Compound B93, 7-((5-methyl-6-(piperazin-1-yl)pyridin-3-yl)methyl)-2-propoxyimidazo[2,1-f][1,2,4]triazin-4-amine]",0.641
17,"CCCC(C)Oc1nc(N)c2ncc(Cc3cnc(N4CCN(C(=O)CN(C)C)CC4)c(C)c3)n2n1 (stereo not shown) [Compound B94, 1-(4-(5-((4-amino-2-(pentan-2-yloxy)imidazo[2,1-f] [1,2,4]triazin-7-yl)methyl)-3-methylpyridin-2-yl)piperazin-1-yl)-2-(dimethylamino)ethan-1-one]",0.013
18,"CCCCOc1nc(N)c2ncc(Cc3cnc(N4CCC(C(=O)N(C)C)CC4)c(C)c3)n2n1 [Compound B95, 1-(5-((4-amino-2-butoxyimidazo[2,1-f][1,2,4]triazin-7-yl)methyl)-3-methylpyridin-2-yl)-N,N-dimethylpiperidine-4-carboxamide]",4.38
19,"CCCCNc1nc(N)c2ncc(Cc3cnc(N4CCC(CN(C)C)CC4)c(C)c3)n2n1 [Compound B96, N2-butyl-7-((6-(4-((dimethylamino)methyl)piperidin-1-yl)-5-methylpyridin-3-yl)methyl)imidazo[2,1-f][1,2,4]triazine-2,4-diamine]",0.017
20,"CCCCOc1nc(N)c2ncc(Cc3cnc(N4CCN[C@H](C)C4)c(C)c3)n2n1 [Compound B97, (R)-2-butoxy-7-((5-methyl-6-(3-methylpiperazin-1-yl)pyridin-3-yl)methyl)imidazo[2,1-f][1,2,4]triazin-4-amine]",0.163
21,"CCCCOc1nc(N)c2ncc(Cc3ccc(N4CCN[C@H](C)C4)c(C)c3)n2n1 [Compound B98, (R)-2-butoxy-7-(3-methyl-4-(3-methylpiperazin-1-yl)benzyl)imidazo[2,1-f][1,2,4]triazin-4-amine]",1.13
22,"CCCCOc1nc(N)c2ncc(Cc3ccc(N4CCNCC4)c(OCCC)c3)n2n1 [Compound B99, 2-butoxy-7-(4-(piperazin-1-yl)-3-propoxybenzyl)imidazo[2,1-f][1,2,4]triazin-4-amine]",0.926
23,"COCCOCCOCCOCCOc1nc(N)c2ncc(Cc3cnc(N4CCNCC4)c(C)c3)n2n1 [Compound B100, 2-((2,5,8,11-tetraoxatridecan-13-yl)oxy)-7-((5-methyl-6-(piperazin-1-yl)pyridin-3-yl)methyl)imidazo[2,1-f][1,2,4]triazin-4-amine]",> 10
24,"CCCCOc1nc(N)c2ncc(Cc3cnc(N4CCC5(CCNCC5)C4)c(C)c3)n2n1 [Compound B101, 2-butoxy-7-((5-methyl-6-(2,8-diazaspiro[4.5]decan-2-yl)pyridin-3-yl)methyl)imidazo[2,1-f][1,2,4]triazin-4-amine]",0.425
25,"CCCCOc1nc(N)c2ncc(Cc3cnc(N4CC5(CCNCC5)C4)c(C)c3)n2n1 [Compound B102, 2-butoxy-7-((5-methyl-6-(2,7-diazaspiro[3.5]nonan-2-yl)pyridin-3-yl)methyl)imidazo[2,1-f][1,2,4]triazin-4-amine]",0.464
26,"CCCCOc1nc(N)c2ncc(Cc3cnc(N4CCC(OC)CC4)c(C)c3)n2n1 [Compound B103, 2-butoxy-7-((6-(4-methoxypiperidin-1-yl)-5-methylpyridin-3-yl)methyl)imidazo[2,1-f][1,2,4]triazin-4-amine]",7.96
27,"CCCCOc1nc(N)c2ncc(Cc3cnc(N4CCC(COC)CC4)c(C)c3)n2n1 [Compound B104, 2-butoxy-7-((6-(4-(methoxymethyl)piperidin-1-yl)-5-methylpyridin-3-yl)methyl)imidazo[2,1-f][1,2,4]triazin-4-amine]",> 10
28,"CCCCOc1nc(N)c2ncc(Cc3cnc(N4CCC(CN(C)C)C4)c(C)c3)n2n1 (stereo not shown) [Compound B105, 2-butoxy-7-((6-(3-((dimethylamino)methyl)pyrrolidin-1-yl)-5-methylpyridin-3-yl)methyl)imidazo[2,1-f][1,2,4]triazin-4-amine]",0.177
